Reference: patent US9884065B2, “Inhibiting activity of senescent cells using a glucocorticoid” (Buck Institute for Research on Aging, priority 2011, dated 2018)

Legend:
[1] = target: T1, mineralocorticoid receptor (Homo sapiens, UniProt P08235); assay: Immunostaining for mineralocorticoid receptor localization in HCA2 cells; details: 500 nM corticosterone or 100 nM cortisol, 1 or 7 days
T1 sequence (P08235 1-984): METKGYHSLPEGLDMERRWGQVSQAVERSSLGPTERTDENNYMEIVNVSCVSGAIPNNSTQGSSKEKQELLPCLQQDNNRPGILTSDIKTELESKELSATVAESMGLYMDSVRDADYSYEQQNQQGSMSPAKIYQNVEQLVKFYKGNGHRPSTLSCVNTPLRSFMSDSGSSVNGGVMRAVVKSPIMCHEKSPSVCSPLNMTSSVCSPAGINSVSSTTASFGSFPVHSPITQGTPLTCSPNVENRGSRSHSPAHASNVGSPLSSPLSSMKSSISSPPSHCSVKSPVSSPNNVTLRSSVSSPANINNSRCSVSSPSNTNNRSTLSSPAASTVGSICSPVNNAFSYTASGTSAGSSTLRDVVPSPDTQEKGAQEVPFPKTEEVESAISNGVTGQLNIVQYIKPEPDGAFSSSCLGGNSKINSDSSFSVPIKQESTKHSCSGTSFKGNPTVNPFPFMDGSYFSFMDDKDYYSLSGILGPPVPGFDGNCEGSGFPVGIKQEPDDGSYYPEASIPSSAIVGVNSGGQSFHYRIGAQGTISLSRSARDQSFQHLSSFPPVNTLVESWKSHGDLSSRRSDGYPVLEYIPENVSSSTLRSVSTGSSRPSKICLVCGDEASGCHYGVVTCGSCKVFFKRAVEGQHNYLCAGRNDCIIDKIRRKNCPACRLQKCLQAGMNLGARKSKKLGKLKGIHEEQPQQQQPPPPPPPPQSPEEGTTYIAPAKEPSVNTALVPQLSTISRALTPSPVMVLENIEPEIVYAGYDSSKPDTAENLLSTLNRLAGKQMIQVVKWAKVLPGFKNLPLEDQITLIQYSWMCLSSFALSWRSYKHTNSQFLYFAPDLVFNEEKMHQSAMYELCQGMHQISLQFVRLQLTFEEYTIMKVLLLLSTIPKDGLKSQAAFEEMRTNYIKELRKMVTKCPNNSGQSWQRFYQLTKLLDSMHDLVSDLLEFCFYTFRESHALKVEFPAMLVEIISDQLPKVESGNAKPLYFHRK

NF-κB = NF-κB DNA binding activity in nuclear extracts (TransAM NF-κB p65 kit); assay type: cell-based, human; details: senescent cells; 500 nM corticosterone or 100 nM cortisol
Procedure: Nuclear extracts were prepared using the nuclear extract kit (Active Motif), and NF-κB DNA binding was determined using the TransAM NF-κB p65 kit (Active Motif). For transactivation assays, cells infected with the NF-κB reporter-luciferase lentivirus were lysed in buffer (Promega), and luciferase activity was normalized to cell number, as described (Freund et al., 2011, EMBO J. 30:1536-1548).

Sen (XRA) HCA2 cells = assay: Senescent phenotypes of Sen (XRA) HCA2 cells (SA-Bgal, BrdU labeling, 53BP1 foci); assay type: cell-based, human; details: 500 nM corticosterone or 100 nM cortisol, 7 days
Procedure: Conditioned media from presenescent (Pre) and the control and glucocorticoid-treated Sen (XRA) cells were analyzed by ELISA for IL-6. […] The percentage of presenescent (Pre) and Sen (XRA) cells that express SA-Bgal were scored (upper panel). A representative field corresponding to each condition is also shown (bottom panels). […] The percentage of cells with >2 53BP1 nuclear foci was determined using CELL PROFILER software. At least 200 cells were analyzed per condition.
HCA2 human neonatal foreskin, IMR-90 human fetal lung fibroblasts and T47D human breast cancer cells were obtained and cultured in 3% O2 and 10% CO2 as previously described (Coppe et al., 2008, PLoS Biol. 6:2853-2868; Rodier et al., 2009, Nature Cell Biol. 11:973-979; Coppe et al., 2010, PLoS ONE 5:e9188). Cells were induced to senesce by X-irradiation (10 Gy) or lentiviral expression of oncogenic RAS or MAP kinase kinase 6 (MKK6), as described (Coppe et al., 2008, PLoS Biol. 6:2853-2868; Rodier et al., 2009, Nature Cell Biol. 11:973-979; Freund et al., 2011, EMBO J. 30:1536-1548). Pre-senescent and senescent cells had 24-h BrdU labeling indices of >75% and <10% respectively (Rodier et al., 2009, Nature Cell Biol. 11:973-979); <10% and >70% respectively stained positive for senescence-associated beta-galactosidase activity (Dimri et al., 1995, Proc. Natl. Acad. Sci. USA 92:9363-9367) (Biovision senescence detection kit). HEK293FT packaging cells (Invitrogen) were used to generate lentiviruses. Corticosterone, cortisol and RU-486 were obtained from Sigma-Aldrich.

[2] = test system: IL-1α/IL-1 receptor (IL-1R) signaling; assay: Western blotting of HCA2 lysates for IRAK1, IκBα, RelA; assay type: cell-based, human; details: senescent cells; 500 nM corticosterone or 100 nM cortisol
Procedure: Cells were lysed in RIPA buffer. Lysates were sonicated (10 sec), followed by centrifugation. Samples were incubated at 70° C. for 10 min, loaded on 4-15% gradient tris-glycine SDS-polyacrylamide gels (Invitrogen) and separated by electrophoresis. Proteins were transferred to PVDF membranes, blocked in TBST 5% milk for 1 hour at room temperature, and probed overnight at 4° C. with primary antibodies in blocking buffer. Membranes were washed in TBST, and incubated with horseradish peroxidase-conjugated secondary antibodies for 1 hour at room temperature. Blots were developed using Western detection substrate (GE Healthcare).
Primary antibodies and dilutions were: anti-GR (SC-8992, Santa Cruz; 1:500), anti-actin (ab6276, Abcam; 1:50000), anti-MCR (SC-11412, Santa Cruz; 1:500), anti-IRAK1 (SC-5288, Santa Cruz; 1:500), anti-IκBα (#9247, Cell Signaling; 1:500), anti-RelA (SC-109, Santa Cruz; 1:500), and anti-53BP1 (A300-272A, Bethyl; 1:500).

SASP factor mRNA = assay: Real-time quantitative PCR of transcripts in HCA2 cells (normalized to tubulin); assay type: cell-based, human; details: 500 nM corticosterone or 100 nM cortisol; for IL-6, IL-8, MMP-3 mRNA levels: senescent X-irradiated HCA2 cells
Description: Cells (7,500/well) in 96-well plates were lysed and reverse transcribed using the Cells-To-Ct kit (Ambion).

Row | Structure (SMILES) | mineralocorticoid receptor localization [1] | NF-κB DNA binding (NF-κB) | fraction of cells that expressed SA-Bgal (Sen (XRA) HCA2 cells) | number of persistent DNA damage foci (53BP1) (Sen (XRA) HCA2 cells) | senescence growth arrest (24 h BrdU labeling index) (Sen (XRA) HCA2 cells) | IRAK1 and IκBα protein abundance [2] | GR mRNA levels (SASP factor mRNA) | IκBα mRNA levels (SASP factor mRNA) | IL-6, IL-8, MMP-3 mRNA levels (SASP factor mRNA)
1 | C[C@]12C[C@H](O)[C@H]3[C@@H](CCC4=CC(=O)CC[C@@]43C)[C@@H]1CC[C@@H]2C(=O)CO [corticosterone] | remained cytoplasmic | significantly decreased | no effect on the fraction of cells that expressed SA-Bgal | no effect on the number of persistent DNA damage foci | maintained their low 24 h BrdU labeling index | restored IRAK1 and IκBα proteins to near-presenescent levels | unaffected by glucocorticoid addition | no effect on IκBα mRNA levels | strongly reduced
2 | C[C@]12CCC(=O)C=C1CC[C@@H]1[C@@H]2[C@@H](O)C[C@@]2(C)[C@H]1CC[C@]2(O)C(=O)CO [cortisol] | remained cytoplasmic | significantly decreased | no effect on the fraction of cells that expressed SA-Bgal | no effect on the number of persistent DNA damage foci | maintained their low 24 h BrdU labeling index | restored IRAK1 and IκBα proteins to near-presenescent levels | unaffected by glucocorticoid addition | no effect on IκBα mRNA levels | strongly reduced
